Results reported in patent US12679827B2, “Pyrimidine compounds and their pharmaceutical uses” (National Health Research Institutes, priority 2020, dated 2026).
Read-outs that look alike come from different tables or passages of the source.

Assays:
[1] = target: T1, human Aurora A (amino acids 123-401) (Homo sapiens, UniProt O14965); assay: Kinase-Glo Luminescent Kinase assay, in vitro inhibition of Aurora A kinase activity; assay type: biochemical; details: recombinant GST-tagged Aurora A, 5.0 μM ATP, 37° C., 120 minutes
T1 construct: human Aurora A (amino acids 123-401) was expressed in Sf9 insect cells; GST; made in house; host or cells: Sf9 insect cells
T1 sequence (O14965 123-401): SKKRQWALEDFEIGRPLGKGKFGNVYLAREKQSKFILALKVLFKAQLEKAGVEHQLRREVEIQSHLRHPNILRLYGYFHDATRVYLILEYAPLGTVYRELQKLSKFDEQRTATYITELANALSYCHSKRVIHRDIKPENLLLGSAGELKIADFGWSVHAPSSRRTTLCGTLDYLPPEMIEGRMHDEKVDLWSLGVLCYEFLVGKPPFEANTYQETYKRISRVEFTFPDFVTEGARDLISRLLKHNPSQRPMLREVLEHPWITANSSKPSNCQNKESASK
Procedure, shortened: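 GST-tagged Aurora A (aa 123-401) expressed in Sf9 cells, incubated with compound at 100 nM, 5.0 μM ATP and 15 μM tetra(-LRRASLG) peptide in Tris-HCl pH 7.4 with MgCl2, BSA and DTT, 120 min at 37° C. Remaining ATP read by Kinase-Glo Plus luminescence after 20 min at 25° C.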

[2] = system: NCI-H446; assay: Small-cell-lung cancer cell proliferation inhibition assay (PrestoBlue), NCI-H446; assay type: cell-based; details: Homo sapiens, cMYC amplified SCLC cells, 72 hours
Protocol: (§1) Small cell lung cancer cells NCI-H82 (ATCC HTB-175, cMYC amplified), NCI-H446 (ATCC® HTB-171, cMYC amplified), and NCI-H69 (ATCC® HTB-119, MYCN amplified) were seeded at the density of 5000-10000 cells per well in 96-well plates. After 24 hours, the cancer cells were treated with each compound at various concentrations (0-10 μM) and then incubated for another 72 hours. IC50 values were computed based on duplicated 8-point titration.

[3] = system: NCI-H82; assay: Small-cell-lung cancer cell proliferation inhibition assay (PrestoBlue), NCI-H82; assay type: cell-based; details: Homo sapiens, cMYC amplified SCLC cells, 72 hours
Protocol: as §1

[4] = system: NCI-H146; assay: Proliferation inhibition of various cancer cells (PrestoBlue), NCI-H146; assay type: cell-based; details: Homo sapiens, Small cell lung cancer, 72 hours
Protocol: (§2) The efficacies of compounds 41 and 86 of Formula (I) in inhibiting proliferation of eleven types of cancer cells were determined using PrestoBlue™ Cell Viability Reagent (ThermoFisher Scientific, USA). The eleven types of cancer cells are small cell lung cancer, non-small cell lung cancer, liver cancer, pancreatic cancer, breast cancer, colon cancer, prostate cancer, neuroblastoma, brain cancer, leukemia, and cholangiocarcinoma.
(§3) More specifically, […], i.e., NCI-H82 (ATCC® HTB-175), NCI-H446 (ATCC® HTB-171), NCI-H69 (ATCC® HTB-119), NCI-H146 (ATCC® HTB-173), NCI-H1792 (ATCC® CRL-5895), NCI-H1299 (ATCC® CRL-5803), SNU-398 (ATCC® CRL-2233), PSN-1 (ATCC® CRL-3211), MIA PaCa-2 (ATCC® CRL-1420), MDA-MB-231 (ATCC® HTB-26), LOVO (ATCC® CCL-229), COLO 205 (ATCC® CCL-222), PC-3 (ATCC® CRL-1435), SK-N-BE(2) (ATCC® CRL-2271), D341 Med (ATCC® HTB-187), K562 (ATCC® CCL-243), MOLM-13 (DSMZ-German Collection of Microorganisms and Cell Cultures GmbH, ACC No. 554), and SNU-478 (KCLB 00478), were seeded at a density of 4000-10000 cells per well in 96-well plates for 24 hours. The cancer cells were then treated with each compound at various concentrations (0-10 μM), followed by incubation for another 72 hours. IC50 values were computed based on duplicated 8-point titration.

[5] = system: NCI-H1792; assay: Proliferation inhibition of various cancer cells (PrestoBlue), NCI-H1792; assay type: cell-based; details: Homo sapiens, Non-small cell lung cancer, 72 hours
Protocol: as §2, §3

[6] = system: PSN-1; assay: Proliferation inhibition of various cancer cells (PrestoBlue), PSN-1; assay type: cell-based; details: Homo sapiens, PSN1; Pancreatic cancer; 72 hours
Protocol: as §2, §3

[7] = system: Colo205; assay: Proliferation inhibition of various cancer cells (PrestoBlue), Colo205; assay type: cell-based; details: Homo sapiens, COLO 205; Colon cancer; 72 hours
Protocol: as §2, §3

[8] = system: PC-3; assay: Proliferation inhibition of various cancer cells (PrestoBlue), PC-3; assay type: cell-based; details: Homo sapiens, Prostate cancer, 72 hours
Protocol: as §2, §3

[9] = system: SK-N-BE(2); assay: Proliferation inhibition of various cancer cells (PrestoBlue), SK-N-BE(2); assay type: cell-based; details: Homo sapiens, SKNBE2; Neuroblastoma; 72 hours
Protocol: as §2, §3

[10] = system: K562; assay: Proliferation inhibition of various cancer cells (PrestoBlue), K562; assay type: cell-based; details: Homo sapiens, Leukemia, 72 hours
Protocol: as §2, §3

[11] = system: MOLM-13; assay: Proliferation inhibition of various cancer cells (PrestoBlue), MOLM-13; assay type: cell-based; details: Homo sapiens, Leukemia, 72 hours
Protocol: as §2, §3

[12] = system: SNU-478; assay: Proliferation inhibition of various cancer cells (PrestoBlue), SNU-478; assay type: cell-based; details: Cholangiocarcinoma; 72 hours
Protocol: as §2, §3

[13] = system: eleven types of cancer cells; assay: Proliferation inhibition of eleven types of cancer cells (summary by cancer type); assay type: cell-based
Protocol: as §2, §3

[14] = all eleven cancer types, read-out: IC50 in inhibiting proliferation of all the eleven types of cancer cells
[15] = breast cancer, read-out: IC50 in inhibiting proliferation of cells
[16] = cholangiocarcinoma, read-out: IC50 in inhibiting proliferation of cells
[17] = non-small cell lung cancer, pancreatic cancer, and colon cancer, read-out: IC50 in inhibiting proliferation of cells
[18] = prostate cancer, read-out: IC50 in inhibiting proliferation of cells
[19] = small-cell-lung cancer, liver cancer, neuroblastoma, brain cancer, and leukemia, read-out: IC50 in inhibiting proliferation of cells

IC50 [1] [nM]	IC50 [2] [nM]	IC50 [3] [nM]	IC50 [4] [nM]	IC50 [5] [nM]	IC50 [6] [nM]	IC50 [7] [nM]	IC50 [8] [nM]	IC50 [9] [nM]	IC50 [10] [nM]	IC50 [11] [nM]	IC50 [12] [nM]	IC50 [13, 14] [nM]	IC50 [13, 15] [nM]	IC50 [13, 16] [nM]	IC50 [13, 17] [nM]	IC50 [13, 18] [nM]	IC50 [13, 19] [nM]	SMILES
< 100	< 1000	< 1000	< 2000	< 2000	< 2000	< 1000	< 10000	< 200	< 1000	< 200	< 2000	< 10000	< 300	< 2000	< 1000	< 10000	< 200	CCN1CCN(c2cc(Nc3cc(C)[nH]n3)nc(N[C@H]3CCN(C(=O)c4ccc(Cl)cc4F)C3)n2)CC1 [Compound 41]
< 100	< 1000	< 1000	< 10000	< 2000	< 2000	< 1000	< 10000	< 200	< 1000	< 200	< 2000	< 10000	< 300	< 2000	< 1000	< 10000	< 200	CCN1CCN(c2cc(Nc3cc(C)[nH]n3)nc(NC3CCN(C(=O)c4cccc(Cl)c4F)CC3)n2)CC1 [Compound 86]
